Reference: ChEMBL document CHEMBL3352322, “Synthesis and biological evaluation of 3-phenethylazetidine derivatives as triple reuptake inhibitors” (Bioorg Med Chem Lett, 2014)
pIC50: −log10 of the molar value.

Key:
[1] = biological target: T1, Sodium-dependent noradrenaline transporter (Homo sapiens, UniProt P23975); assay: Ratio of duloxetine IC50 to compound IC50 for norepinephrine reuptake at human NET expressed in HEK293 cells at 0.1 uM after 15 mins by fluorescence neurotransmitter transporter assay; assay type: cell-based
[2] = biological target: T1, Sodium-dependent noradrenaline transporter; assay: Ratio of venlafaxine IC50 to compound IC50 for norepinephrine reuptake at human NET expressed in HEK293 cells at 0.1 uM after 15 mins by fluorescence neurotransmitter transporter assay; assay type: cell-based
[3] = biological target: T2, Sodium-dependent serotonin transporter (Homo sapiens, UniProt P31645); assay: Ratio of duloxetine IC50 to compound IC50 for serotonin reuptake at human SERT expressed in HEK293 cells at 0.1 uM after 15 mins by fluorescence neurotransmitter transporter assay; assay type: cell-based
Target sequence in this assay (P31645 whole entry, looked up): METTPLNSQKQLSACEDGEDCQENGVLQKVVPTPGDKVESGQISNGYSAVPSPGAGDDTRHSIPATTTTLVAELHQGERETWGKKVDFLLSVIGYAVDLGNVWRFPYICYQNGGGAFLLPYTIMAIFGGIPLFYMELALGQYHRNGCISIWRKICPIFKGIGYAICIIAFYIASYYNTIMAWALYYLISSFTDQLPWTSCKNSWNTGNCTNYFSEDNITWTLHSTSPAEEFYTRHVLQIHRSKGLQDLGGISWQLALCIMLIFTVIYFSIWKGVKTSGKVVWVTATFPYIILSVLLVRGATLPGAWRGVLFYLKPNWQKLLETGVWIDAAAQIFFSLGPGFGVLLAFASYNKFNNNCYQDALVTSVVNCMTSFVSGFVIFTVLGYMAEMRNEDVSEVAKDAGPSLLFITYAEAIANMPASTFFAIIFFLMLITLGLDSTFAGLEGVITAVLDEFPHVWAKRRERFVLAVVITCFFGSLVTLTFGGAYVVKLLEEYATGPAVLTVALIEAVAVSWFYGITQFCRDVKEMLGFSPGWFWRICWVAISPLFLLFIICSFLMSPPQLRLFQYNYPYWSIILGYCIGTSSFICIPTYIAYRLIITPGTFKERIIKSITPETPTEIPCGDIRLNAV

[4] = biological target: T2, Sodium-dependent serotonin transporter; assay: Ratio of venlafaxine IC50 to compound IC50 for serotonin reuptake at human SERT expressed in HEK293 cells at 0.1 uM after 15 mins by fluorescence neurotransmitter transporter assay; assay type: cell-based
Target sequence in this assay (P31645 whole entry, looked up): as above

[5] = biological target: T2, Sodium-dependent serotonin transporter; assay type: cell-based, HEK293
Target sequence in this assay (P31645 whole entry): as the sequence (P31645 whole entry, looked up) above

[6] = Stability in human liver microsomes assessed as compound remaining at 1 uM after 30 mins by LC/MS analysis; assay type: ADME; details: read-out: Stability
[7] = biological target: T1, Sodium-dependent noradrenaline transporter
[8] = biological target: Sodium-dependent dopamine transporter (Homo sapiens, UniProt Q01959)
Sodium-dependent dopamine transporter, sequence (Q01959 whole entry): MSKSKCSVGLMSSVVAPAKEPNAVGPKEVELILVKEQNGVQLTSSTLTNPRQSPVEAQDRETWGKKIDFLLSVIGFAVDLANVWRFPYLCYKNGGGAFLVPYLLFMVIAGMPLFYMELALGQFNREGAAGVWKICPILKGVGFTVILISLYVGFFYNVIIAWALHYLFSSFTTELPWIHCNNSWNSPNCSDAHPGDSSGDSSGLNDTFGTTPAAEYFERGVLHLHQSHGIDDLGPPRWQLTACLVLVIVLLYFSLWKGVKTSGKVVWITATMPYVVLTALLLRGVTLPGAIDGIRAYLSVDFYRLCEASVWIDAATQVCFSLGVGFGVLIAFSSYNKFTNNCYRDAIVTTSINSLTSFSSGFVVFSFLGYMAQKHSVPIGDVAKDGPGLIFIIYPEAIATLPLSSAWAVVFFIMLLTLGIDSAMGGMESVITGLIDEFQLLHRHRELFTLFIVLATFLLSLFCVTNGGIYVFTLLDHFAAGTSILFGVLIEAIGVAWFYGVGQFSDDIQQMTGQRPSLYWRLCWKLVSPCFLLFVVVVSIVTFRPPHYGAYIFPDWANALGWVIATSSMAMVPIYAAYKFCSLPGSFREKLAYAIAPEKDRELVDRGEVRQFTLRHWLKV

[9] = biological target: T3, Cytochrome P450 1A2 (Homo sapiens, UniProt P05177)
T3 sequence (P05177 whole entry): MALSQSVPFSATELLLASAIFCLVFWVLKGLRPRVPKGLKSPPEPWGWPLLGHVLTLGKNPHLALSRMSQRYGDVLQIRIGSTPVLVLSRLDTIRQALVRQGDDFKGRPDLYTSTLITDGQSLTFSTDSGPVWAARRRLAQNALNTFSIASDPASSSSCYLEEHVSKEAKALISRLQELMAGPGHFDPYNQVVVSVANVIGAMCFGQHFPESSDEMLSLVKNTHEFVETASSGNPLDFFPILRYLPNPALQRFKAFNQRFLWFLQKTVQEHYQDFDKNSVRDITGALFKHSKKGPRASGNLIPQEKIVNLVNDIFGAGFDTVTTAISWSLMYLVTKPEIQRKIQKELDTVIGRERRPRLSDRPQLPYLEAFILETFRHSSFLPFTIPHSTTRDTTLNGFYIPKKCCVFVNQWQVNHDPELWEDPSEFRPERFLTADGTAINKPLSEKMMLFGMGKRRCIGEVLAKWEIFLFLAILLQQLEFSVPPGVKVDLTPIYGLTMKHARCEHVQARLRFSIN

[10] = biological target: Cytochrome P450 2D6 (Homo sapiens, UniProt P10635)
[11] = biological target: Cytochrome P450 2C9 (Homo sapiens, UniProt P11712)
Cytochrome P450 2C9, sequence (P11712 whole entry): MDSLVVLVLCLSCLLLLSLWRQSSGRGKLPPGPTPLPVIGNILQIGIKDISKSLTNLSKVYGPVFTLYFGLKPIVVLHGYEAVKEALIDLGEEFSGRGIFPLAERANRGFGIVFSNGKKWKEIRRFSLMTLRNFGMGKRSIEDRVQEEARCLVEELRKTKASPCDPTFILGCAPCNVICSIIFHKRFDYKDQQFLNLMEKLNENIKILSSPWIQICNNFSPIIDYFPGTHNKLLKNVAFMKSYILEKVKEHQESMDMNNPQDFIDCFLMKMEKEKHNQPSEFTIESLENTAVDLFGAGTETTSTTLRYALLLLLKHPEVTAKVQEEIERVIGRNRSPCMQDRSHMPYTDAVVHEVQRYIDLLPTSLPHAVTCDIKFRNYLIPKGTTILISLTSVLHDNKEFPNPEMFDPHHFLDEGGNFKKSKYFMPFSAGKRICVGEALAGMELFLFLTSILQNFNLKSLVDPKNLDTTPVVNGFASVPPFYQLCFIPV

[12] = biological target: Cytochrome P450 3A4 (Homo sapiens, UniProt P08684)
Cytochrome P450 3A4, sequence (P08684 whole entry): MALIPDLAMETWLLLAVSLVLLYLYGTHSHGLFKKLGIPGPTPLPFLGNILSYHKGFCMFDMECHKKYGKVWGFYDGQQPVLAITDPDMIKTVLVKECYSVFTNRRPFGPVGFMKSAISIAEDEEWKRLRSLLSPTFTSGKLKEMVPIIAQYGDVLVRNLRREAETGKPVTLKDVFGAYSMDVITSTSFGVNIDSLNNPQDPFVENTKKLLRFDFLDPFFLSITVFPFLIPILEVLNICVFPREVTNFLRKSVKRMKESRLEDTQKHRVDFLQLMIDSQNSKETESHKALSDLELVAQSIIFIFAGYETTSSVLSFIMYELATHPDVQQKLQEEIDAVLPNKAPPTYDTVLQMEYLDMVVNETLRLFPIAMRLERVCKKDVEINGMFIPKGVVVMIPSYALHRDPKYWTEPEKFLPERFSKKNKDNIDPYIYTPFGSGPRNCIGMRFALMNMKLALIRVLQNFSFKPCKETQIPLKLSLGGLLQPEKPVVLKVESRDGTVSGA

[13] = biological target: Cytochrome P450 2C19 (Homo sapiens, UniProt P33261)
Cytochrome P450 2C19, sequence (P33261 whole entry): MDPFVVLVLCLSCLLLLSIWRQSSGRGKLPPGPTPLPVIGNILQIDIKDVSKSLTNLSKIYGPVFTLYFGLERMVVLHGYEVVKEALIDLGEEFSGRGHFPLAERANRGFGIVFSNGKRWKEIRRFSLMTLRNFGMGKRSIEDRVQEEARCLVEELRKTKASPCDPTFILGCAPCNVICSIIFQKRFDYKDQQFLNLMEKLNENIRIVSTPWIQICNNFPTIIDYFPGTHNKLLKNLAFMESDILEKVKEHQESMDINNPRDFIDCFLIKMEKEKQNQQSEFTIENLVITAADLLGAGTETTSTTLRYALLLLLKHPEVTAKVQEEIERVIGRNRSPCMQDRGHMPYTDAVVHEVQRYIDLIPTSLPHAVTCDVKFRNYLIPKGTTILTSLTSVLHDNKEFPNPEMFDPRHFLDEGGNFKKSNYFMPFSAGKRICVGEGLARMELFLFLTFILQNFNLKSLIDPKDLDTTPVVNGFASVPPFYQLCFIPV

[14] = biological target: T2, Sodium-dependent serotonin transporter; details: HEK293, at 0.1 µM
Target sequence in this assay (P31645 whole entry, looked up): as the sequence (P31645 whole entry, looked up) above

[15] = biological target: T2, Sodium-dependent serotonin transporter; details: HEK293, at 1 µM
Target sequence in this assay (P31645 whole entry, looked up): as above

[16] = biological target: T2, Sodium-dependent serotonin transporter; details: HEK293, at 10 µM
Target sequence in this assay (P31645 whole entry, looked up): as above

[17] = biological target: Voltage-gated inwardly rectifying potassium channel KCNH2 (Homo sapiens, UniProt Q12809); assay: Inhibition of human ERG expressed in CHO-K1 cells by patch-clamp electrophysiology method; assay type: cell-based
[18] = biological target: T4, CYP1A2 (Homo sapiens, UniProt P05177); assay: in vitro; details: recombinant CYP1A2
T4 sequence (P05177 whole entry): T3 sequence (P05177 whole entry)

[19] = biological target: CYP2D6 (Homo sapiens, UniProt P10635); assay: in vitro; details: recombinant CYP2D6
[20] = biological target: CYP2C9 (Homo sapiens, UniProt P11712); assay: in vitro; details: recombinant CYP2C9
CYP2C9, sequence (P11712 whole entry): as the sequence (P11712 whole entry) above

[21] = biological target: CYP3A4 (Homo sapiens, UniProt P08684); assay: in vitro; details: recombinant CYP3A4
CYP3A4, sequence (P08684 whole entry): as the sequence (P08684 whole entry) above

[22] = biological target: CYP2C19 (Homo sapiens, UniProt P33261); assay: in vitro; details: recombinant CYP2C19
CYP2C19, sequence (P33261 whole entry): as the sequence (P33261 whole entry) above

`Fc1ccc(OC(CC2CNC2)c2ccc(Cl)c(F)c2)cc1` (stereo unspecified) gave a Ratio IC50 [1] greater than 7, a Ratio IC50 [2] greater than 7 and a Ratio IC50 [3] greater than 7. For the same molecule, the Ratio IC50 [4] was greater than 7, the pIC50 [5] was 7.24 and the remaining at 0.5 h, 1 µM [6] was 85%. For the same molecule, the pIC50 [7] was 7.49, the pIC50 [8] was 6.84 and the pIC50 [9] was 4.72. The pIC50 [10] was 6.00, the pIC50 [11] was 5.62 and the pIC50 [12] was 6.40. For the same molecule, the pIC50 [13] was 5.89, the inhibition [14] was 72% and the inhibition [15] was 100%. It also gave an inhibition [16] of 100%.

Molecule `Fc1cccc(OC(CC2CNC2)c2ccc(Cl)c(F)c2)c1` (stereo unspecified) has a Ratio IC50 [1] greater than 7, a Ratio IC50 [2] greater than 7 and a Ratio IC50 [3] greater than 7. For the same molecule, the Ratio IC50 [4] was greater than 7, the pIC50 [5] was 7.44 and the remaining at 0.5 h, 1 µM [6] was 73%. The pIC50 [17] was 5.84, the pIC50 [7] was 7.84 and the pIC50 [8] was 7.45. It also gave a pIC50 [9] of 4.89, a pIC50 [10] of 5.40 and a pIC50 [11] of 5.51. It also gave a pIC50 [12] of 6.29, a pIC50 [13] of 6.68 and an inhibition [14] of 98%. The inhibition [15] was 100%, the inhibition [16] was 100% and the inhibition at 10 µM [18] was 30%. The inhibition at 10 µM [19] was 13%, the inhibition at 10 µM [20] was 11% and the inhibition at 10 µM [21] was 11%. It also gave an inhibition at 10 µM [22] of 6.4%.

`Fc1cc(C(CC2CNC2)Oc2cccc(Cl)c2)ccc1Cl` (stereo unspecified) showed a Ratio IC50 [1] greater than 7, a Ratio IC50 [2] greater than 7 and a Ratio IC50 [3] greater than 7. The Ratio IC50 [4] was greater than 7, the pIC50 [5] was 7.33 and the remaining at 0.5 h, 1 µM [6] was 57%. For the same molecule, the pIC50 [7] was 7.52, the pIC50 [8] was 7.08 and the pIC50 [9] was 4.82. For the same molecule, the pIC50 [10] was 6.28, the pIC50 [11] was 5.96 and the pIC50 [12] was 6.22. It also gave a pIC50 [13] of 6.60, an inhibition [14] of 87% and an inhibition [15] of 100%. The inhibition [16] was 100%, the inhibition at 10 µM [18] was 40% and the inhibition at 10 µM [19] was 7.9%. The inhibition at 10 µM [20] was 4.2%, the inhibition at 10 µM [21] was 13% and the inhibition at 10 µM [22] was 3.3%.

Molecule `Fc1cc(C(CC2CNC2)Oc2ccccc2F)ccc1Cl` (stereo unspecified) has a Ratio IC50 [1] greater than 7, a Ratio IC50 [2] greater than 7 and a Ratio IC50 [3] greater than 7. It also gave a Ratio IC50 [4] greater than 7, a pIC50 [5] of 7.33 and a remaining at 0.5 h, 1 µM [6] of 71%. It also gave a pIC50 [17] of 5.85, a pIC50 [7] of 7.80 and a pIC50 [8] of 7.19. It also gave a pIC50 [9] of 4.36, a pIC50 [10] of 5.06 and a pIC50 [11] of 5.66. For the same molecule, the pIC50 [12] was 6.15, the pIC50 [13] was 6.60 and the inhibition [14] was 77%. The inhibition [15] was 100%, the inhibition [16] was 100% and the inhibition at 10 µM [18] was 33%. For the same molecule, the inhibition at 10 µM [19] was 9.6%, the inhibition at 10 µM [20] was 12% and the inhibition at 10 µM [21] was 7.2%. For the same molecule, the inhibition at 10 µM [22] was 7%.
